Laboratory results from PubChem BioAssay (NCI).
Where “and” joins values, the source holds several entries; their conditions need not be identical. Equal values may be shown once.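 How tested: cells in 96-well plates exposed to compound for 48 hours at five concentrations. GI50: concentration for 50% inhibition of growth. Definition used: TGI = concentration required for complete inhibition of growth.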

Assays:
Experiment in all cases: NCI-60 cell line screen, 48 h
MDA-MB-231 breast = system: MDA-MB-231 breast
T-47D breast = system: T-47D breast
NCI-H226 lung = system: NCI-H226 lung
SK-OV-3 ovarian = system: SK-OV-3 ovarian
BT-549 breast = system: BT-549 breast
SR leukemia = system: SR leukemia
MOLT-4 leukemia = system: MOLT-4 leukemia
EKVX NSCLC = system: EKVX NSCLC
KM20L2 colon = system: KM20L2 colon
DMS 273 small cell lung = system: DMS 273 small cell lung

Row | Structure (SMILES) | GI50 (MDA-MB-231 breast) | TGI (MDA-MB-231 breast) | GI50 (T-47D breast) | TGI (T-47D breast) | GI50 (NCI-H226 lung) | TGI (NCI-H226 lung) | GI50 (SK-OV-3 ovarian) | TGI (SK-OV-3 ovarian) | GI50 (BT-549 breast) | TGI (BT-549 breast) | GI50 (SR leukemia) | TGI (SR leukemia) | GI50 (MOLT-4 leukemia) | TGI (MOLT-4 leukemia) | GI50 (EKVX NSCLC) | TGI (EKVX NSCLC) | TGI (KM20L2 colon) | TGI (DMS 273 small cell lung)
1 | CC1CC2(C)CC(=O)C1C1C(=O)N(CCN3CCOCC3)C(=O)C12 (stereo not drawn) | > 100 µM | > 100 µM | > 100 µM | > 100 µM | > 100 µM | > 100 µM | > 100 µM | > 100 µM | > 100 µM | > 100 µM | > 100 µM | > 100 µM | > 100 µM | > 100 µM | > 100 µM | > 100 µM | – | –
2 | N#CCCn1c(CCC(=O)Nc2ccc(Cl)cc2Cl)n[nH]c1=S | – | – | – | – | – | > 100 µM | – | > 100 µM | – | – | – | > 100 µM | – | > 100 µM | – | – | > 100 µM | > 100 µM
3 | COc1ccc(S(=O)(=O)N/N=C/CN2C(=O)c3ccccc3C2=O)cc1 | – | – | – | – | – | > 100 µM | – | – | – | – | – | > 100 µM | – | > 100 µM | – | > 100 µM | > 100 µM | > 100 µM
4 | COc1ccc(-c2cc3c(N)ncnc3o2)cc1 | > 25 µM | > 25 µM | > 25 µM | > 25 µM | > 25 µM | > 25 µM | > 25 µM | > 25 µM | > 25 µM | > 25 µM | > 25 µM | > 25 µM | > 25 µM | > 25 µM | 3.59 µM | > 25 µM | – | –
5 | CC(=O)Nc1ccccc1S(=O)c1ccccc1 (stereo not drawn) | – | – | – | – | – | > 100 µM | – | > 100 µM | – | – | – | – | – | > 100 µM | – | > 100 µM | > 100 µM | > 100 µM
6 | CN/N=C(/CC(=O)c1sc(NNC(C)=O)nc1C)C(=O)Nc1ccc(OC)cc1OC | – | – | – | – | – | > 100 µM | – | – | – | – | – | > 100 µM | – | > 100 µM | – | > 100 µM | > 100 µM | > 100 µM
7 | CC(C)CC1NC(=O)C(C(C)C)NC(=O)CC(C)COC(=O)C(CC(C)C)N(C)C(=O)C(C(C)C)NC(=O)C(C(C)C)OC1=O (stereo not drawn) | – | > 50 µM | – | > 50 µM | – | > 50 µM | – | > 50 µM | – | > 50 µM | – | > 50 µM | – | > 50 µM | – | > 50 µM | – | –
8 | C=C1CC(CC(=O)C(C)CC2CC(=C)C(=O)O2)OC1=O (stereo not drawn) | – | – | – | – | – | – | – | > 100 µM | – | – | – | 24.1 µM | – | 29.7 µM | – | > 100 µM | > 100 µM | 57.5 µM
9 | C=CC(=O)Nc1cccc(Nc2nc(Nc3ccc(N4CCN(C(C)=O)CC4)cc3OC)ncc2C(F)(F)F)c1 | 4.47 µM and 4.02 µM | > 10 µM and 20.6 µM | 1.88 µM and 3.92 µM | > 10 µM and 49.3 µM | 3.29 µM and 2.38 µM | > 10 µM and 12.7 µM | 0.211 µM and 0.291 µM | 2.8 µM and 5.29 µM | 4.14 µM | > 10 µM and 10.6 µM | 3.37 µM and 1.45 µM | 8.32 µM and > 45.3 µM | 5.47 µM and 4.04 µM | > 58.5 µM | 1.36 µM and 1.68 µM | > 10 µM and 12.4 µM | – | –
10 | CCC(=O)Oc1ccc(/C=N/NC(N)=S)nc1 | 6.79 µM | > 100 µM | 5.83 µM | > 100 µM | 9.72 µM | 43.4 µM | 29.7 µM | > 100 µM | 11.9 µM | > 100 µM | 1.34 µM | > 100 µM | 3.3 µM | > 100 µM | 43.7 µM | > 100 µM | – | –
11 | ClCCCN1CCCCC1CCl (stereo not drawn) | – | – | – | – | – | – | – | > 100 µM | – | – | – | > 100 µM | – | > 100 µM | – | – | > 100 µM | > 100 µM
12 | O=C(Nc1ccc(N2CCNCC2)cn1)c1[nH]ncc1Nc1ncnc2sc3c(c12)CCC3 | 1.69 µM | 3.28 µM | 1.65 µM | 4.27 µM | 20 µM | 67.2 µM | 16.3 µM | 34.8 µM | 14.1 µM | 38.6 µM | 0.246 µM | 0.872 µM | 2.54 µM | 19.8 µM | 1.99 µM | 5.77 µM | – | –
13 | Cn1c(=O)c2[nH]cnc2n(C)c1=O.[CH2-]C(Cc1cccc2cc(C(=O)O)c(=O)oc12)OC.[Hg+2].[OH-] (stereo not drawn) | 20.9 µM | 35.6 µM | 18.9 µM | 63.5 µM | 21.4 µM | 40.7 µM | > 44 µM | > 58.5 µM | 17.3 µM | 31.2 µM | 20.8 µM | 53.8 µM | 8.81 µM | 40.5 µM | 20.7 µM | 37.4 µM | – | –
14 | O=C(OCc1ccccc1)c1ccccc1-c1c2ccc(=O)cc-2oc2cc(OCc3ccccc3)ccc12 | – | – | – | – | – | 32.2 µM | – | – | – | – | – | 18.8 µM | – | 6.44 µM | – | > 100 µM | > 100 µM | > 100 µM
15 | COc1ccc2c(c1)NC(=O)CN2c1nc(C)nc2ccccc12 | 0.000914 µM | > 100 µM | 5.89 µM | > 100 µM | – | > 100 µM | 0.000409 µM | 7.19 µM | 0.0021 µM | – | – | > 100 µM | 0.000605 µM | > 100 µM | – | > 100 µM | – | –
16 | O=[N+]([O-])c1ccc2nc(=S)[nH]n2c1 | – | > 100 µM | – | > 100 µM | – | > 100 µM | – | > 100 µM | – | > 100 µM | – | > 100 µM | – | > 100 µM | – | > 100 µM | – | –
17 | NCCNc1ncnc2ccc(Cl)cc12 | – | > 100 µM | – | > 100 µM | – | > 100 µM | – | > 100 µM | – | > 100 µM | – | > 100 µM | – | – | – | > 100 µM | – | –
18 | COc1ccc([Se]c2ccc(OC)cc2)cc1 | – | – | – | – | – | 93.5 µM | – | > 100 µM | – | – | – | – | – | > 100 µM | – | – | > 100 µM | > 100 µM
19 | NNC(=O)N/N=C1/C(=O)N(c2ccc(Cl)c(Cl)c2)C(=O)C(=O)C1c1nc2ccccc2o1 (stereo not drawn) | – | – | – | – | – | > 100 µM | – | > 100 µM | – | – | – | – | – | > 100 µM | – | > 100 µM | > 100 µM | > 100 µM
20 | Nc1ncnc2c1ncn2C1OC(C(=O)OCCO)C(O)C1O (stereo not drawn) | – | > 100 µM | – | > 100 µM | – | > 100 µM | – | > 100 µM | – | > 100 µM | – | > 100 µM | – | > 100 µM | – | > 100 µM | – | –
21 | CCN1C(=O)N(CC)C2C1NN=c1s/c(=C\c3cnc(C)n3C)c(=O)n12 (stereo not drawn) | 2.5 µM | 31.9 µM | 4.81 µM | > 100 µM | > 100 µM | > 100 µM | 2.74 µM | > 100 µM | 3.66 µM | 90.9 µM | 0.346 µM | 19.1 µM | 3.24 µM | > 100 µM | 3.65 µM | > 100 µM | – | –
22 | C#Cc1ccccc1N1C(=O)C=CC1=O | – | – | – | – | – | > 100 µM | – | > 100 µM | – | – | – | > 100 µM | – | > 100 µM | – | > 100 µM | > 100 µM | –
